Measurements reported in paper PMC11464717, “Structural basis for antibiotic transport and inhibition in PepT2” (Nature Communications, 2024).
“And” between values parts separate entries of the source, which are not always exact repeats. Equal values may be shown once. Read-outs that look alike come from different tables or passages of the source. Where a SMILES comes first, the peptide text is derived from it.

Legend:
rat PepT2 [1] = target: T1, rat PepT2 (Rattus norvegicus, UniProt Q63424); assay: Inhibition of uptake of radioactive di-alanine peptide into PepT2 proteoliposomes (IC50); type: biochemical
T1 construct: His-tagged GFP (C, cleaved yes); made in house; host or cells: HEK293F cells
T1 sequence (Q63424 1-729): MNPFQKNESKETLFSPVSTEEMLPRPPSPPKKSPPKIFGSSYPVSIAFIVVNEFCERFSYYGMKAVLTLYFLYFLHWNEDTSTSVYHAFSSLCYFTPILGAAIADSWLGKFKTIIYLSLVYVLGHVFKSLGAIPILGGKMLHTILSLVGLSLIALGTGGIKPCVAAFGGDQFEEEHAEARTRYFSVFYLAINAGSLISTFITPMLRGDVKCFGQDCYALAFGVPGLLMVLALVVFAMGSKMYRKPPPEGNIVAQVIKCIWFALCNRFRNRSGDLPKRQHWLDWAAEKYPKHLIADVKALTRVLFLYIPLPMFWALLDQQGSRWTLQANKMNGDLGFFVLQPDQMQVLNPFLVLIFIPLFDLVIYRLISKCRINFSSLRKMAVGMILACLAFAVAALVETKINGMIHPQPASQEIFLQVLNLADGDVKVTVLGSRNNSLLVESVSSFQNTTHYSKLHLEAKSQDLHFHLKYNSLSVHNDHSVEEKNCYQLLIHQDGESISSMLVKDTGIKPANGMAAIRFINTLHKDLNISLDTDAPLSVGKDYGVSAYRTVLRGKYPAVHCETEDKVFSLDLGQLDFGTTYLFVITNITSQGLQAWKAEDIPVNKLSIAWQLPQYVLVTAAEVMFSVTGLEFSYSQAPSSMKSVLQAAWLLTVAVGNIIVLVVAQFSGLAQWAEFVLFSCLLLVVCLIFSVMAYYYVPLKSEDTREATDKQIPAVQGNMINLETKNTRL
Experimental: (§1) The lipids were dried to obtain a thin film using a rotary evaporator and washed twice in pentane before being resuspended at 10 mg mL^–1 in lipid buffer (50 mM potassium phosphate at pH 7.5). These lipid vesicles were frozen and thawed twice in liquid nitrogen and stored at −80 °C until required. For reconstitution, the lipids were thawed and then extruded first through a 0.8-μm filter and then through a 0.4-μm filter. Purified PepT2 at 0.3 μg μl^−1 was added to the lipids at a final lipid:protein ratio of 100:1 (w/w) for transport assays or 10:1 for solid support membrane (SSM) experiments and incubated for 1 h at room temperature, then for a further 1 h on ice. After this time, biobeads were added in batches. After 24 h biobeads were removed and the proteoliposomes harvested by centrifugation at 120,000 g for 40 min before resuspension in lipid buffer at a final protein concentration of 0.25 μg μl^−1, or 0.5 ug ul^−1 for liposomes for SSM. They were subjected to three rounds of freeze–thawing in liquid nitrogen before storage at −80 °C.
The reaction was initiated through the addition of valinomycin at 1 μM and stopped after 4 minutes by rapidly filtering onto 0.22-μm filters, which were then washed with 2 × 2 mL cold water. […] Experiments were performed three times (from at least 2 independent purifications and reconstitutions) to generate an overall mean and s.d.

rat PepT2 [2] = target: T1, rat PepT2; assay: Counterflow transport assay in PepT2 proteoliposomes; type: biochemical; conditions: for Counterflow activity relative to L-Ala-L-Ala: Supplementary Table 2, RnPepT2 reconstituted liposome assay; for Ability to drive transport in counterflow: result in words, cloxacillin also at 10 mM; for Counterflow transport, individual experiments (source data Fig 1d): relative to di-alanine
Experimental: as §1, with “PepT2 was reconstituted into liposomes consisting of a 3:1 POPE:POPG (Avanti polar lipids, USA, Cat. No. 850757 C, 840457 C) using biobeads. The lipids” for “The lipids”
Proteoliposomes were harvested through centrifugation before resuspending in counterflow buffer (50 mM potassium phosphate pH 7.5) containing 0.5 mM peptide or antibiotic (unless stated otherwise) or water as the negative control and were subjected to four rounds of freeze thawing in liquid nitrogen to fully distribute the buffer and ligand. The proteoliposomes were then extruded through a 0.2-μm filter. Transport was initiated by diluting into counterflow buffer containing 40 μM di-alanine with trace amounts of ^3H di-alanine, transport was allowed to proceed for 5 minutes before termination of the experiments through rapidly filtering onto 0.22-μm filters, which were then washed with 2 × 2 mL cold water. The amount of peptide transported inside the liposomes was calculated as above. Experiments were performed a minimal of five times and plotted as the level of transport for each ligand compared to the level observed with di-alanine as a percentage.

PepT2 = conditions: cell-based assays, inhibition of a radioactive reporter peptide; cited from earlier work
rat PepT2 [3] = target: T1, rat PepT2; assay: SSM-based electrophysiology (SURFE2R) of reconstituted PepT2; type: biochemical; conditions: result in words
Experimental: as §1, with “PepT2 was reconstituted into liposomes consisting of a 3:1 POPE:POPG (Avanti polar lipids, USA, Cat. No. 850757 C, 840457 C) using biobeads. The lipids” for “The lipids”
SSM-based assays were performed on a SURFE^2R N1 (Nanion Technologies) with sensors prepared as follows. 50 μl of 0.5 mM 1-octadecanethiol solution in isopropanol was added to the sensor and left overnight. The sensor was rinsed three times with isopropanol and then three times with water before being allowed to dry. 1.5 ul of 7.5 μg/μl 1,2-diphytanoyl-sn-glycero-3-phosphocholin in n-decane was applied to the surface of the sensor. Immediately after this 50 ul of non-activating buffer were added and left for an hour at room temperature. Proteoliposomes were diluted (5 ul liposomes with 36 ul buffer) in non-activating buffer (20 mM HEPES, 140 mM KCl, 2 mM MgCl2 pH 7.2) and sonicated four times for 10 s in a water bath before application (2–6 μl) to the prepared 3 mm sensors. Sensors were incubated at room temperature and centrifugation at 2800 g for 30 min at 10 °C and incubated at room temperature for at least an hour prior to assaying. The activating buffer was made with the desired concentration of ligand (alanine, di-alanine, or the antibiotics of interest) in non-activating buffer. A single solution exchange workflow was used with activating buffer applied at 1 s and removed at 2 s. This technique was used to distinguish between antibiotics substrate (gives a current, similar to a known peptide control – di-alanine) and inhibitor (no current observed similar to a known non substrate, alanine) and raw traces from 1–3 s are shown in Fig. 1.

[4] = target: T2, PepT2 (SLC15A2) from Rattus norvegicus (Rattus norvegicus, UniProt Q63424)
T2 construct: Proton-coupled peptide transporter PepT2 (SLC15A2), Rattus norvegicus; The extracellular domain is in the protein but was not built in the deposited models; also called rat PepT2; ratPepT2; source: HEK293F, transfected, purified (nickel NTA, TEV cleavage, SEC) in DDM:CHS; also reconstituted into POPE:POPG liposomes; not shown: GFP, C-terminal, cleaved; His tag, C-terminal, cleaved

[5] = target: T2, PepT2 (SLC15A2) from Rattus norvegicus; assay: cryo-EM structure; PepT2 after size exclusion (DDM:CHS) mixed with 1 mM antibiotic (cefadroxil, amoxicillin or cloxacillin) for one hour, then 1.2 molar excess of nanobody D8, on ice for at least 30 min; PepT2 at 5-6 mg/mL; conditions: both partners purified
[6] = rat PepT2 in liposomes, inhibition of 3H di-alanine uptake, 4 minutes, mean of n = 3 (SD), read-out: IC50
[7] = 5 min, read-out: Counterflow activity relative to L-Ala-L-Ala
[8] = IC50, rat PepT2 in liposomes, inhibition of 3H di-alanine uptake, 4 minutes, mean of n = 3 (SD)
[9] = single independent experiments, 3 per ligand, read-out: IC50, individual experiments (source data Fig 1c)
[10] = Supplementary Table 2, RnPepT2 reconstituted liposome assay, read-out: IC50 (µM) relative to L-Ala-L-Ala
[11] = 0.5 mM ligand, listed as Ala-Ala

Molecule | IC50 (rat PepT2 [1]; [6]) | Counterflow activity relative to L-Ala-L-Ala (rat PepT2 [2]; [7]) | Ability to drive transport in counterflow (rat PepT2 [2]) | IC50 (rat PepT2 [1]; [9]) | Capacitance change / current on solid support membrane (rat PepT2 [3]) | also measured
CC1(C)S[C@@H]2[C@H](NC(=O)[C@H](N)c3ccccc3)C(=O)N2[C@H]1C(=O)O [Ampicillin, ampicillin] | – | – | – | – | – | IC50 (rat PepT2 [1]; [8]): 750 µM
CC1(C)S[C@@H]2[C@H](NC(=O)Cc3ccccc3)C(=O)N2[C@H]1C(=O)O [Benzylpenicillin, benzylpenicillin] | – | 0% | cannot transport | – | – | Counterflow transport, individual experiments (source data Fig 5a) (rat PepT2 [2]; 10 mM ligand): 7.2 and 6.8 and 6.2 and 4.1
Cc1onc(-c2ccccc2Cl)c1C(=O)N[C@@H]1C(=O)N2[C@@H]1SC(C)(C)[C@@H]2C(=O)O [Cloxacillin, cloxacillin] | – | 0% | unable to drive transport | 180 µM and 220 µM and 210 µM | – | IC50 (rat PepT2 [1]; [8]): 203 µM; Counterflow transport, individual experiments (source data Fig 1d) (rat PepT2 [2]; 0.5 mM ligand): 4.1 and 3.2 and 4 and 1 and 3.1; Counterflow transport, individual experiments (source data Fig 1d) (rat PepT2 [2]; 10 mM ligand): 2.7 and 1.2 and 5.4 and 3.4 and 2.5; Ki (PepT2): 1000 µM
Nc1nc(/C(=C/CC(=O)O)C(=O)N[C@@H]2C(=O)N3C(C(=O)O)=CCS[C@H]23)cs1 [Ceftibuten, ceftibuten] | – | 0% | cannot transport | – | – | IC50 (rat PepT2 [1]; [10]): 1200 µM; IC50 (rat PepT2 [1]; rat PepT2 in liposomes, inhibition of 3H di-alanine uptake, read-out: IC50): 1000 µM; Counterflow transport, individual experiments (source data Fig 5a) (rat PepT2 [2]; 4 mM ligand): 6.7 and 5.6 and 6.9
di-alanine peptide | – | – | – | – | – | IC50 of inhibition of the uptake of radioactive (3H) di-alanine into PepT2 proteoliposomes [4]: 32 µM
CC1=C(C(=O)O)N2C(=O)[C@@H](NC(=O)[C@H](N)c3ccc(O)cc3)[C@H]2SC1 [Cefadroxil, cefadroxil] | 19 µM | 120% | more effectively than di-alanine | 22 µM and 17 µM | significant capacitance change | IC50 (rat PepT2 [1]; [10]): 20 µM; Counterflow transport, individual experiments (source data Fig 1d) (rat PepT2 [2]; 0.5 mM ligand): 117 and 120.6 and 118 and 125 and 128; Ki (PepT2): 3 µM
CC1(C)S[C@@H]2[C@H](NC(=O)[C@H](N)c3ccc(O)cc3)C(=O)N2[C@H]1C(=O)O [Amoxicillin, amoxicillin] | 270 µM | 33% | – | 225 µM and 301 µM and 280 µM | significant capacitance change | Counterflow transport, individual experiments (source data Fig 1d) (rat PepT2 [2]; 0.5 mM ligand, listed as Amoxacillin): 29 and 39.2 and 34.1 and 35 and 28; Ki (PepT2): 200 to 430 µM
N[C@@H](C(=O)N[C@@H]1C(=O)N2C(C(=O)O)=C(Cl)CS[C@H]12)c1ccccc1 [Cefaclor, cefaclor] | – | 76% | – | 55 µM and 58 µM and 42 µM | – | Counterflow transport, individual experiments (source data Fig 5a) (rat PepT2 [2]; 0.5 mM ligand): 82 and 72.2 and 77.1 and 71.3; Counterflow activity relative to di-alanine (rat PepT2 [2]; uptake of 3H di-alanine, 5 minutes, level relative to di-alanine, 0.5 mM ligand unless stated otherwise): 76%
N[C@@H](CCCCNC(=O)OCc1ccc([N+](=O)[O-])cc1)C(=O)N1CCC[C@H]1C(=O)O [LZNP, Lys [Z(NO2)]-Proline] | – | – | – | – | – | Counterflow transport, individual experiments (source data Fig 1d) (rat PepT2 [2]; 0.5 mM ligand): 3.8 and 4.1 and 6.1 and 5.4
C[C@H](N)C(=O)N[C@@H](C)C(=O)O [di-alanine, L-Ala-L-Ala] (H-Ala-Ala-OH) | 32 µM | – | – | – | significant capacitance change | IC50 (rat PepT2 [1]; single independent experiments, 3 per ligand, listed as Ala-Ala, read-out: IC50, individual experiments (source data Fig 1c)): 34.6 µM and 31.2 µM and 29.4 µM; Counterflow transport, individual experiments (source data Fig 1d) (rat PepT2 [2]; [11]): 100 and 99.8 and 108.7 and 97.1 and 95.2; Counterflow transport, individual experiments (source data Fig 5a) (rat PepT2 [2]; [11]): 97.2 and 101.1 and 99.1 and 100.3; Counterflow activity relative to L-Ala-L-Ala (rat PepT2 [2]): 100
nanobody (D8) (VHH, The nanobody was in the complexes solved here (PDB 9BIR, 9BIS, 9BIT, 9BIU); Its expression plasmid is deposited at Addgene; also called the nanobody) VHH: QVQLVESGGGLVQPGGSLRLLCVASGRPFNDYDMGWFRQAPGKEREFVASISWSGRVTDYSDSMKGRCTVSRDNAKGTMFLQMSNLVPRDTAVYYCAAARRRWTFKATNTEEFYETWGQGTQVTVSS | – | – | – | – | – | binding result [5]: binds

Continued, in another order:

IC50 (rat PepT2 [1]; [6]) | Counterflow activity relative to L-Ala-L-Ala (rat PepT2 [2]; [7]) | Ability to drive transport in counterflow (rat PepT2 [2]) | IC50 (rat PepT2 [1]; [9]) | Capacitance change / current on solid support membrane (rat PepT2 [3]) | Molecule | also measured
500 µM | 0% | cannot transport | – | – | CO[C@@]1(NC(=O)C(C(=O)O)c2ccc(O)cc2)C(=O)N2C(C(=O)O)=C(CSc3nnnn3C)CO[C@@H]21 (stereo partly drawn) [Moxalactam, moxalactam] | Counterflow transport, individual experiments (source data Fig 5a) (rat PepT2 [2]; 1 mM ligand): 5.6 and 5.3 and 6.5 and 4.2
– | – | – | – | non-transported | C[C@H](N)C(=O)O [alanine] | –
